Experimental data: the supplement of paper PMC10307832

Legend:
Assay in all cases: relative viability (nuclei count vs DMSO), 5 days (fraction); higher = more cells survive
GSK-J4 + Linsitinib = compound: CCOC(=O)CCNc1cc(N2CCc3ccccc3CC2)nc(-c2ccccn2)n1 [GSK-J4] + C[C@]1(O)C[C@@H](c2nc(-c3ccc4ccc(-c5ccccc5)nc4c3)c3c(N)nccn32)C1 [Linsitinib] (partner 1 µM)
Method in brief: (§1)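 Five library-drug doses in √10 steps were combined with a fixed anchor-drug dose, or a single drug was given alone, by pin tool to lung cancer cell lines in 1536-well plates the day after seeding. Nuclei were stained and counted after 5 days. Relative viability is the nuclei count in treated wells over that in vehicle wells, taken as the median of duplicate plates.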

GSK-J4 + Dasatinib = compound: CCOC(=O)CCNc1cc(N2CCc3ccccc3CC2)nc(-c2ccccn2)n1 [GSK-J4] + Cc1nc(Nc2ncc(C(=O)Nc3c(C)cccc3Cl)s2)cc(N2CCN(CCO)CC2)n1 [Dasatinib] (partner 0.075 µM)
Method in brief: as §1

GSK-J4 + Pemetrexed = compound: CCOC(=O)CCNc1cc(N2CCc3ccccc3CC2)nc(-c2ccccn2)n1 [GSK-J4] + Nc1nc2[nH]cc(CCc3ccc(C(=O)N[C@@H](CCC(=O)O)C(=O)O)cc3)c2c(=O)[nH]1 [Pemetrexed] (partner 0.2 µM)
Method in brief: as §1

AZ3146 + Lapatinib = compound: CN1CCC(CC1)OC2=CC(=C(C=C2)NC3=NC=C4C(=N3)N(C(=O)N4C)C5CCCC5)OC [AZ3146] + CS(=O)(=O)CCNCc1ccc(-c2ccc3ncnc(Nc4ccc(OCc5cccc(F)c5)c(Cl)c4)c3c2)o1 [Lapatinib] (partner 2 µM)
Method in brief: as §1

| Cell Line | relative viability (GSK-J4 + Linsitinib; first compound 0.5 µM) | relative viability (GSK-J4 + Linsitinib; first compound 1.581 µM) | relative viability (GSK-J4 + Linsitinib; first compound 5 µM) | relative viability (GSK-J4 + Linsitinib; first compound 15.81 µM) | relative viability (GSK-J4 + Linsitinib; first compound 50 µM) | relative viability (GSK-J4 + Dasatinib; first compound 0.5 µM) | relative viability (GSK-J4 + Dasatinib; first compound 1.581 µM) | relative viability (GSK-J4 + Dasatinib; first compound 5 µM) | relative viability (GSK-J4 + Dasatinib; first compound 15.81 µM) | relative viability (GSK-J4 + Dasatinib; first compound 50 µM) | relative viability (GSK-J4 + Pemetrexed; first compound 0.5 µM) | relative viability (GSK-J4 + Pemetrexed; first compound 1.581 µM) | relative viability (GSK-J4 + Pemetrexed; first compound 5 µM) | relative viability (GSK-J4 + Pemetrexed; first compound 15.81 µM) | relative viability (GSK-J4 + Pemetrexed; first compound 50 µM) | relative viability (AZ3146 + Lapatinib; first compound 0.08 µM) | relative viability (AZ3146 + Lapatinib; first compound 0.253 µM) | relative viability (AZ3146 + Lapatinib; first compound 0.8 µM) | relative viability (AZ3146 + Lapatinib; first compound 2.53 µM) | relative viability (AZ3146 + Lapatinib; first compound 8 µM) |
| --- | --- | --- | --- | --- | --- | --- | --- | --- | --- | --- | --- | --- | --- | --- | --- | --- | --- | --- | --- | --- |
| NCI-H1437 | 0.928 | 0.993 | 0.988 | 0.881 | 0.222 | 0.426 | 0.438 | 0.353 | 0.307 | 0.126 | 0.298 | 0.317 | 0.3 | 0.297 | 0.262 | 0.708 | 0.739 | 0.829 | 0.899 | 0.519 |
| PC-14 | 0.909 | 0.918 | 0.86 | 0.915 | 1.05 | 0.252 | 0.271 | 0.204 | 0.285 | 0.255 | 0.128 | 0.143 | 0.13 | 0.143 | 0.17 | 0.285 | 0.351 | 0.279 | 0.382 | 0.315 |
| NCI-H2228 | 0.483 | 0.721 | 0.748 | 0.746 | 1.04 | 0.534 | 0.436 | 0.683 | 0.398 | 0.525 | 0.335 | 0.328 | 0.342 | 0.36 | 0.364 | 1.08 | 1.13 | 1.21 | 1.23 | 0.889 |
| CAL-12T | 0.856 | 0.776 | 0.776 | 0.742 | 0.648 | 0.431 | 0.477 | 0.465 | 0.405 | 0.335 | 1.2 | 1.15 | 1.4 | 1.27 | 0.946 | 0.701 | – | 0.588 | 0.771 | 0.56 |
| LOU-NH91 | 1 | 0.928 | 0.804 | 0.817 | 1 | 0.65 | 0.612 | 0.432 | 0.506 | 0.631 | 0.39 | 0.381 | 0.36 | 0.346 | 0.441 | 0.969 | 0.739 | 0.692 | 0.768 | 0.777 |
| EMC-BAC-2 | 0.781 | 0.728 | 0.83 | 0.715 | 0.794 | 0.317 | 0.333 | 0.191 | 0.339 | 0.258 | 0.414 | 0.362 | – | 0.441 | 0.477 | 0.85 | 0.845 | 0.954 | 0.954 | 0.987 |
| NCI-H1355 | 0.714 | 0.742 | 0.871 | 0.809 | 0.816 | 0.749 | 0.654 | 0.342 | 0.538 | 0.675 | 0.988 | 0.975 | 0.889 | 0.858 | 0.992 | 0.854 | 0.951 | 0.986 | 1.03 | 0.953 |
| NCI-H1666 | 0.873 | – | 0.888 | 0.779 | 0.764 | 0.774 | 0.879 | 0.526 | 0.802 | 0.536 | 0.864 | 0.665 | 0.765 | 0.882 | 0.791 | 0.681 | 0.669 | 0.694 | 0.891 | 0.536 |
| NCI-H2126 | 0.735 | 0.705 | 0.732 | 0.677 | 0.725 | 0.603 | 0.47 | 0.587 | 0.56 | 0.444 | 0.716 | 0.593 | 0.733 | 0.621 | 0.555 | 0.691 | 0.745 | 0.707 | 0.818 | 0.729 |
| NCI-H1793 | 0.973 | 0.71 | 0.94 | 0.594 | 0.493 | 0.433 | 0.365 | 0.239 | 0.358 | 0.414 | 1.01 | 0.6 | 0.684 | 0.235 | 0.167 | 0.649 | 0.853 | 0.492 | 0.805 | 0.497 |
| LCLC-97TM1 | – | – | 0.213 | 0.23 | 0.146 | 0.596 | 0.724 | 0.951 | 0.825 | 0.555 | 0.15 | 0.153 | 0.198 | 0.148 | 0.181 | – | – | 1.2 | 0.861 | 0.289 |
| COR-L23 | 0.909 | 0.933 | – | 0.868 | 0.807 | 0.477 | 0.393 | – | 0.409 | 0.413 | 0.185 | 0.192 | – | 0.212 | 0.207 | 1 | 1.02 | 0.871 | 0.923 | 0.899 |
| NCI-H1563 | 1.15 | 1.2 | 1.22 | 1.18 | 1.24 | 0.51 | 0.695 | 0.461 | 0.42 | 0.417 | 0.738 | 1.26 | 0.717 | 0.698 | 0.76 | 0.695 | 0.881 | 0.951 | 0.927 | 0.873 |
| HARA | 0.891 | 0.608 | – | 0.797 | 0.699 | 0.267 | – | – | 0.24 | 0.258 | 0.219 | 0.214 | – | 0.263 | 0.243 | 0.652 | 0.851 | 0.662 | 0.822 | 0.693 |
